In US20240025906A1 (NEURON23, INC., priority 2022, published 2024) one finds IC50 and Kd data, which are given here for 27 compounds.

Where two headings read alike, the source gives them in different places. Bounds are passed on as bounds.

Experiment [1] concerns JAK1/TYK2 pSTAT5 (Tyr694/699) in THP-1 cell line. The experiment can be described thus: IFNa-stimulated JAK1/TYK2 pSTAT5 (Tyr694/699) inhibition cellular assay, AlphaLISA. It is filed as cell-based. Particulars: Homo sapiens, THP-1 cells, AlphaLISA (Assay B), read-out: Cellular_THP1_IFNa-pSTATS_TYK2. The method, boiled down:
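The readout is AlphaLISA signal at 615 nm for phospho-STAT5 in THP-1 lysates after IFNa stimulation (added at 100 ng/mL, 30 min, 37 °C). Cells had compound for 1 h beforehand across eight 6-fold concentrations up to 10000 nM final. IC50s are 4PL fits with bottom and Hill slope constrained.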
Background: Alpha assays give light when donor and acceptor beads are brought close together.

For another experiment, the target named is T1, TYK2 JH2 (Homo sapiens, UniProt P29597).
T1 construct: purchased DiscoverX (KINOMEscan KdELECT service); host or cells: E. coli BL21-derived (T7 phage display) or HEK-293
The experiment can be described thus: TYK2 JH2 binding assay (KINOMEscan KdELECT competitive binding). The note with it: TYK2 JH2 domain, KINOMEscan KdELECT (Assay A); read-out: Biochemical TYK2_DiscoverX_JH2_BND_Kd. The method, boiled down: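 Beads carrying a biotinylated ligand were mixed with tagged JH2 kinase and compound (11 points, 3-fold steps, 0.9% DMSO) and shaken 1 h at room temperature. After washing, kinase was released with 0.5 μM untagged ligand over 30 min and measured by qPCR to derive Kd.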

The mark [2] stands for this setting: IFNa-stimulated pSTAT5 (Tyr694/699).

T1 sequence (P29597 589-875 limits assumed): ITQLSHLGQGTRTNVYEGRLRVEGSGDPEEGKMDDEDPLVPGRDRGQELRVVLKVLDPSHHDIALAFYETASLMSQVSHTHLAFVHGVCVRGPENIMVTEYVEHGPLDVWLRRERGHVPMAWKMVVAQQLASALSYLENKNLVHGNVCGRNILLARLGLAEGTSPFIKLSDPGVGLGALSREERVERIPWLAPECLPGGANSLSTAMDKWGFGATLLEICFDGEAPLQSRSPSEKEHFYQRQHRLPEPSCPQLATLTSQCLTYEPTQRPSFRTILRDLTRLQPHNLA

For the compound `CNc1ncc(C#Cc2cc3sc(C)cc3cn2)c2cc(NC(=O)C3CC3)ncc12` [Example 968, N-[8-(methylamino)-5-[2-(2-methylthieno[3,2-c]pyridin-6-yl)ethynyl]-2,7-naphthyridin-3-yl]cyclopropanecarboxamide], the IC50 in experiment [1] (IFNa-stimulated) was at most 500 nM. For the same compound, the Kd at TYK2 JH2 is at most 100 nM.
In the case of `CNc1ncc(C#Cc2ccc(N3CCOCC3)cc2F)c2cc(NC(=O)C3CC3)ncc12` [Example 969, N-[5-[2-(2-fluoro-4-morpholino-phenyl)ethynyl]-8-(methylamino)-2,7-naphthyridin-3-yl]cyclopropanecarboxamide], the IC50 in experiment [1] (IFNa-stimulated) is at most 500 nM. Besides, the Kd at TYK2 JH2 was at most 100 nM.
The like results for `CNc1ncc(C#Cc2ccc(Oc3cn(C)c(C)n3)cc2)c2cc(NC(=O)C3CC3)ncc12` [Example 970, N-(5-((4-((1,2-dimethyl-1H-imidazol-4-yl)oxy)phenyl)ethynyl)-8-(methylamino)-2,7-naphthyridin-3-yl)cyclopropanecarboxamide] were, in that order, at most 500 nM and at most 100 nM.
In the same order, the values of `CNc1ncc(C#Cc2ccc(Oc3ccn(C)n3)cc2)c2cc(NC(=O)C3CC3)ncc12` [Example 971, N-[8-(methylamino)-5-[2-[4-(1-methylpyrazol-3-yl)oxyphenyl]ethynyl]-2,7-naphthyridin-3-yl]cyclopropanecarboxamide] are at most 500 nM and at most 100 nM.
The like results for `CNc1ncc(C#Cc2ccc3c(c2)C(F)(F)C(=O)N3C)c2cc(NC(=O)C3CC3)ncc12` [Example 972, N-[5-[2-(3,3-difluoro-1-methyl-2-oxo-indolin-5-yl)ethynyl]-8-(methylamino)-2,7-naphthyridin-3-yl]cyclopropanecarboxamide] were, in that order, at most 500 nM and at most 100 nM.
On to `CNc1ncc(C#Cc2cc3c(cc2F)OCCO3)c2cc(NC(=O)C3CC3)ncc12` [Example 973, N-[5-[2-(6-fluoro-2,3-dihydro-1,4-benzodioxin-7-yl)ethynyl]-8-(methylamino)-2,7-naphthyridin-3-yl]cyclopropanecarboxamide], for which the IC50 in experiment [1] (IFNa-stimulated) is at most 500 nM. The Kd on TYK2 JH2 is at most 100 nM.
In the same order, the values of `CNc1ncc(C#Cc2ccc3c(c2)CCC(CF)O3)c2cc(NC(=O)C3CC3)ncc12` (stereo not drawn) [Example 974, N-[5-[2-[2-(fluoromethyl)chroman-6-yl]ethynyl]-8-(methylamino)-2,7-naphthyridin-3-yl]cyclopropanecarboxamide] are at most 500 nM and at most 100 nM.
The like results for `CNc1ncc(C#Cc2cccc3c2SCCC3=O)c2cc(NC(=O)C3CC3)ncc12` [Example 975, N-[8-(methylamino)-5-[2-(4-oxothiochroman-8-yl)ethynyl]-2,7-naphthyridin-3-yl]cyclopropanecarboxamide] were, in that order, at most 500 nM and at most 100 nM.
The like results for `CNc1ncc(C#Cc2ncc(OC)cc2C(F)F)c2cc(NC(=O)C3CC3)ncc12` [Example 976, N-(5-((3-(difluoromethyl)-5-methoxypyridin-2-yl)ethynyl)-8-(methylamino)-2,7-naphthyridin-3-yl)cyclopropanecarboxamide] were, in that order, at most 500 nM and at most 100 nM.
Take `CNc1ncc(C#Cc2ccc3c(c2)OCC(C)O3)c2cc(NC(=O)C3CC3)ncc12` (stereo not drawn) [Example 977, N-[8-(methylamino)-5-[2-(2-methyl-2,3-dihydro-1,4-benzodioxin-6-yl)ethynyl]-2,7-naphthyridin-3-yl]cyclopropanecarboxamide]: the IC50 in experiment [1] (IFNa-stimulated) is at most 500 nM. In addition, the Kd at TYK2 JH2 was at most 100 nM.
On to `CNc1ncc(C#Cc2ccc3c(c2)C=CC(C)(C)O3)c2cc(NC(=O)C3CC3)ncc12` [Example 978, N-[5-[2-(2,2-dimethylchromen-6-yl)ethynyl]-8-(methylamino)-2,7-naphthyridin-3-yl]cyclopropanecarboxamide], for which the IC50 in experiment [1] (IFNa-stimulated) is at most 500 nM. Moreover, the Kd at TYK2 JH2 was at most 100 nM.
On to `CNc1ncc(C#Cc2ccnc(F)c2)c2cc(NC(=O)C3CC3)ncc12` [Example 979, N-[5-[2-(2-fluoro-4-pyridyl)ethynyl]-8-(methylamino)-2,7-naphthyridin-3-yl]cyclopropanecarboxamide], for which the IC50 in experiment [1] (IFNa-stimulated) was at most 500 nM. In addition, the Kd on TYK2 JH2 was at most 100 nM.
The like results for `CNc1ncc(C#Cc2ccc(F)cn2)c2cc(NC(=O)C3CC3)ncc12` [Example 980, N-[5-[2-(5-fluoro-2-pyridyl)ethynyl]-8-(methylamino)-2,7-naphthyridin-3-yl]cyclopropanecarboxamide] were, in that order, at most 500 nM and at most 100 nM.
In the same order, the values of `CNc1ncc(C#Cc2ccc3c(c2)CCC(CO)O3)c2cc(NC(=O)C3CC3)ncc12` (stereo not drawn) [Example 981] are at most 500 nM and at most 100 nM.
In the same order, the values of `CNc1ncc(C#Cc2nccc3ccsc23)c2cc(NC(=O)C3CC3)ncc12` [Example 984, N-[8-(methylamino)-5-(2-thieno[2,3-c]pyridin-7-ylethynyl)-2,7-naphthyridin-3-yl]cyclopropanecarboxamide] are at most 500 nM and at most 100 nM.
Regarding `CNc1ncc(C#Cc2ccncc2Cl)c2cc(NC(=O)C3CC3)ncc12` [Example 985, N-[5-[2-(3-chloro-4-pyridyl)ethynyl]-8-(methylamino)-2,7-naphthyridin-3-yl]cyclopropanecarboxamide], the IC50 in experiment [1] (IFNa-stimulated) was at most 500 nM. Besides, the Kd at TYK2 JH2 was at most 100 nM.
As for `CNc1ncc(C#Cc2ccc(Oc3cn(C)cn3)cc2)c2cc(NC(=O)C3CC3)ncc12` [Example 986, N-[8-(methylamino)-5-[2-[4-(1-methylimidazol-4-yl)oxyphenyl]ethynyl]-2,7-naphthyridin-3-yl]cyclopropanecarobxmaide], the IC50 in experiment [1] (IFNa-stimulated) is at most 500 nM. Besides, the Kd on TYK2 JH2 was at most 100 nM.
As to `CNc1ncc(C#Cc2ccc3c(c2)CCC(COC)O3)c2cc(NC(=O)C3CC3)ncc12` (stereo not drawn) [Example 987, N-[5-[2-[2-(methoxymethyl)chroman-6-yl]ethynyl]-8-(methylamino)-2,7-naphthyridin-3-yl]cyclopropanecarobxamide], in experiment [1] (IFNa-stimulated), the IC50 was at most 500 nM. Moreover, the Kd on TYK2 JH2 is at most 100 nM.
Take `CNc1ncc(C#Cc2cn(C)cn2)c2cc(NC(=O)C3CC3)ncc12` [Example 990, N-[8-(methylamino)-5-[2-(1-methylimidazol-4-yl)ethynyl]-2,7-naphthyridin-3-yl]cyclopropanecarboxamide]: the IC50 in experiment [1] (IFNa-stimulated) was at most 500 nM. Also, the Kd at TYK2 JH2 is at most 100 nM.
In the same order, the values of `CNc1ncc(C#Cc2ccncc2F)c2cc(NC(=O)C3CC3)ncc12` [Example 991, N-[5-[2-(3-fluoro-4-pyridyl)ethynyl]-8-(methylamino)-2,7-naphthyridin-3-yl]cyclopropanecarboxamide] are at most 500 nM and at most 100 nM.
With `CNc1ncc(C#Cc2ccnc(Cl)c2)c2cc(NC(=O)C3CC3)ncc12` [Example 992, N-[5-[2-(2-chloro-4-pyridyl)ethynyl]-8-(methylamino)-2,7-naphthyridin-3-yl]cyclopropanecarboxamide], the IC50 in experiment [1] (IFNa-stimulated) was at most 500 nM. In addition, the Kd at TYK2 JH2 is at most 100 nM.
Consider `CNc1ncc(C#Cc2ccc(OCC(F)(F)F)cn2)c2cc(NC(=O)C3CC3)ncc12` [Example 993, N-[8-(methylamino)-5-[2-[5-(2,2,2-trifluoroethoxy)-2-pyridyl]ethynyl]-2,7-naphthyridin-3-yl]cyclopropanecarboxamide], for which, in experiment [1] (IFNa-stimulated), the IC50 was at most 500 nM. Besides, the Kd on TYK2 JH2 is at most 100 nM.
Take `CNc1ncc(C#Cc2ccc(Cl)cn2)c2cc(NC(=O)C3CC3)ncc12` [Example 995, N-(5-((5-chloropyridin-2-yl)ethynyl)-8-(methylamino)-2,7-naphthyridin-3-yl)cyclopropanecarboxamide]: in experiment [1] (setting [2]), the IC50 is at most 500 nM. Further, the Kd at TYK2 JH2 is at most 100 nM.
The like results for `CNc1ncc(C#Cc2ccc3nc(C(F)F)sc3c2)c2cc(NC(=O)C3CC3)ncc12` [Example 996, N-(5-((2-(difluoromethyl)benzo[d]thiazol-6-yl)ethynyl)-8-(methylamino)-2,7-naphthyridin-3-yl)cyclopropanecarboxamide] were, in that order, at most 500 nM and at most 100 nM.
The like results for `CNc1ncc(C#Cc2ccc3c(c2)OCO3)c2cc(NC(=O)C3CC3)ncc12` [Example 997, N-[5-[2-(1,3-benzodioxol-5-yl)ethynyl]-8-(methylamino)-2,7-naphthyridin-3-yl]cyclopropanecarboxamide] were, in that order, at most 500 nM and at most 100 nM.
In the same order, the values of `CNc1ncc(C#Cc2ccc(-n3ncccc3=O)cc2)c2cc(NC(=O)C3CC3)ncc12` [Example 998, N-(8-(methylamino)-5-((4-(6-oxopyridazin-1(6H)-yl)phenyl)ethynyl)-2,7-naphthyridin-3-yl)cyclopropanecarboxamide] are at most 500 nM and at most 100 nM.
Consider `CNc1ncc(C#Cc2ccc(N3CCOCC3=O)cc2)c2cc(NC(=O)C3CC3)ncc12` [Example 999, N-(8-(methylamino)-5-((4-(3-oxomorpholino)phenyl)ethynyl)-2,7-naphthyridin-3-yl)cyclopropanecarboxamide], for which the IC50 in experiment [1] (setting [2]) was at most 500 nM. The Kd at TYK2 JH2 is at most 100 nM.
